Data: patent US11613527B2, “Enzyme inhibitors” (KalVista Pharmaceuticals Limited, priority 2019, dated 2023)
Values after ≈ are worked out from the molar mass of the structure shown.

How the values were obtained:
Human FXIa = Human FXIa (Homo sapiens (Human), UniProt P03951); assay: Determination of the % inhibition for FXIa (fluorogenic substrate Z-Gly-Pro-Arg-AFC; 40 μM or IC50); type: biochemical
Procedure, shortened: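 Human FXIa incubated at 25 °C with fluorogenic substrate Z-Gly-Pro-Arg-AFC and test compound at 40 μM for % inhibition, or a concentration series for IC50. Residual activity taken as initial rate from absorbance change at 410 nm.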

[1] = Solubility after 24 hrs in Fasted State Simulated Intestinal Fluid (FaSSIF); type: physicochemical; settings: Fasted State Simulated Intestinal Fluid (FaSSIF), thermodynamic from solid, 24 hrs at 37° C., nominal concentration 1 mg/mL (as free base)
Description: Selected compounds were further screened for solubility in Fasted State Simulated Intestinal Fluid (FaSSIF).
Approximately 1 mg of test compound is accurately weighed into a 2 mL vial. Volumes of the FaSSIF solution (pre-heated to 37° C.) were added to a vial to give a nominal concentration of 1 mg/mL (as free base). The FaSSIF solution was prepared on the day of use. The samples were vortexed before being placed in a Titramax 1000 shaker for 24 hrs at 37° C. and approximately 500 rpm. The samples were transferred to eppendorf tubes and centrifuged at 15,000 g (r.c.f.) for 10 min at 37° C. and analysed for concentration of test compound by LCMS.

Human KLK1 = Human KLK1 (Homo sapiens (Human), UniProt P06870); assay: Determination of the IC50 for KLK1 (fluorogenic substrate H-DVal-Leu-Arg-AFC); type: biochemical
Sequence of Human KLK1 (P06870 25-262): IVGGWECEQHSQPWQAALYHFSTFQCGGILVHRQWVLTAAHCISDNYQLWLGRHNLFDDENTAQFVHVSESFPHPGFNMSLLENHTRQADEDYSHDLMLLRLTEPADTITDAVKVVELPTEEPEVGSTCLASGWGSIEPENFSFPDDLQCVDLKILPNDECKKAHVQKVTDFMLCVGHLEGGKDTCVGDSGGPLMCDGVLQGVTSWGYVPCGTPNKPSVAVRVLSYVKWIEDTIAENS
Procedure, shortened: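 Human KLK1 incubated at 25° C. with fluorogenic substrate H-DVal-Leu-Arg-AFC and a range of test compound concentrations. Residual activity taken as initial reaction rate from absorbance change at 410 nm; IC50 derived from these rates.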

Human plasma kallikrein = Human plasma kallikrein (Homo sapiens (Human), UniProt P03952); assay: Determination of the IC50 for plasma kallikrein (fluorogenic substrate H-DPro-Phe-Arg-AFC); type: biochemical; settings: class symbols A-D, read-out: IC50 (human PKal)
Sequence of Human plasma kallikrein (P03952 391-638): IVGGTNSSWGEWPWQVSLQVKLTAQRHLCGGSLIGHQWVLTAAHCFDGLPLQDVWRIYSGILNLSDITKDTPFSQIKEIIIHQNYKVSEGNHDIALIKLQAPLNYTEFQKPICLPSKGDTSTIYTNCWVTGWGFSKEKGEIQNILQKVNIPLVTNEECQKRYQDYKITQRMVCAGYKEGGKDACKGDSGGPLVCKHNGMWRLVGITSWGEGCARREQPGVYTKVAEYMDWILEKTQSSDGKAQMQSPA
Sequence of Human plasma kallikrein (P03952 20-390 partner): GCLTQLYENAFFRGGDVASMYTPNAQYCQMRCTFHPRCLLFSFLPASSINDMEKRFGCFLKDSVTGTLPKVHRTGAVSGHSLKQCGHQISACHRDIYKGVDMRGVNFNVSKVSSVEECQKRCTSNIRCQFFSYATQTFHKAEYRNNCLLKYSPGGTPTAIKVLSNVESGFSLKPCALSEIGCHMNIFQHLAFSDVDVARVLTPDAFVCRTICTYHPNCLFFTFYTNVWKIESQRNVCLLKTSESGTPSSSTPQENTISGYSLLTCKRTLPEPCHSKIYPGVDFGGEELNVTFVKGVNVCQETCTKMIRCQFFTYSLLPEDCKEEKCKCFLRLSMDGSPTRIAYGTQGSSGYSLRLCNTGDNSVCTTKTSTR
Procedure, shortened: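 Enzyme from a commercial source was incubated at 25° C. with H-DPro-Phe-Arg-AFC substrate and a range of test compound concentrations. Residual activity was taken as the initial reaction rate, followed by absorbance change at 410 nm, and IC50 values were derived from it.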

Sequence of Human FXIa (P03951 388-625): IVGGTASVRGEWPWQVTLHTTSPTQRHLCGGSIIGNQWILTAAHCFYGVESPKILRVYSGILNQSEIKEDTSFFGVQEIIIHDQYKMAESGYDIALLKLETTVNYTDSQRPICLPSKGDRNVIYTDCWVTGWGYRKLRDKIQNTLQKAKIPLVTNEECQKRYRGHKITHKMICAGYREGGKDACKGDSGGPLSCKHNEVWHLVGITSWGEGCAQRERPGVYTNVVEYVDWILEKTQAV
Sequence of Human FXIa (P03951 19-387 partner): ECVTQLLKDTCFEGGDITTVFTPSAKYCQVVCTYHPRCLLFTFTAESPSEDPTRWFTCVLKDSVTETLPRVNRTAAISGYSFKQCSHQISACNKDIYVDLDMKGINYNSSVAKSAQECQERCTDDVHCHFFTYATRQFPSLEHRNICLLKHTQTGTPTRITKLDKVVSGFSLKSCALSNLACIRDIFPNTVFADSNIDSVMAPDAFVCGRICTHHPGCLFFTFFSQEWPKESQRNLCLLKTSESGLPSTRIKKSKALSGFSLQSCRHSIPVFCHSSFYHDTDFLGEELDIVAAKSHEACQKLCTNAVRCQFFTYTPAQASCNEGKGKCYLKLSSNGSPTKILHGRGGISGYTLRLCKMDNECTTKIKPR

Compound	IC50 (Human FXIa) [µM]	solubility at 24 h [1] [µg/mL]	IC50 (Human KLK1) [µM]	IC50 (Human plasma kallikrein) [µM]
COc1ccc(-n2cc(C)nn2)c(CNC(=O)c2cn(Cc3cc4n(n3)CCN(C)C4)nc2C(F)(F)F)c1F [Example 125, N-{[2-fluoro-3-methoxy-6-(4-methyl-1,2,3-triazol-1-yl)phenyl]methyl}-1-({5-methyl-4H,6H,7H-pyrazolo[1,5-a]pyrazin-2-yl}methyl)-3-(trifluoromethyl)pyrazole-4-carboxamide]	> 40	650 (≈ 1190 µM)	> 40	< 0.01
COc1ccc(-n2cc(C)nn2)c(CNC(=O)c2ccc(=O)n(Cc3ccc4c(c3)CN(C)CC4)c2)c1F [Example 160, N-{[2-fluoro-3-methoxy-6-(4-methyl-1,2,3-triazol-1-yl)phenyl]methyl}-1-[(2-methyl-3,4-dihydro-1H-isoquinolin-7-yl)methyl]-6-oxopyridine-3-carboxamide]	> 40	820 (≈ 1590 µM)	> 40	< 0.01
COCc1nn(Cc2ccc3c(c2)CCN(C2CCC2)C3)cc1C(=O)NCc1c(-n2cc(C)nn2)ccc(OC)c1F [Example 40, 1-[(2-cyclobutyl-3,4-dihydro-1H-isoquinolin-6-yl)methyl]-N-{[2-fluoro-3-methoxy-6-(4-methyl-1,2,3-triazol-1-yl)phenyl]methyl}-3-(methoxymethyl)pyrazole-4-carboxamide]	> 40	> 1000	> 40	0.01 to 0.03
COc1ccc(-n2cc(C)nn2)c(CNC(=O)c2cn(Cc3ccc4c(c3)CN(C)CC4)c(C3CC3)n2)c1F [Example 149, 2-cyclopropyl-N-{[2-fluoro-3-methoxy-6-(4-methyl-1,2,3-triazol-1-yl)phenyl]methyl}-1-[(2-methyl-3,4-dihydro-1H-isoquinolin-7-yl)methyl]imidazole-4-carboxamide]	> 40	910 (≈ 1720 µM)	> 40	0.01 to 0.03
COc1ccc(-n2cc(C)nn2)c(CNC(=O)c2cn(Cc3ccc4c(c3)CN(C)CC4)nn2)c1F [Example 152, N-{[2-fluoro-3-methoxy-6-(4-methyl-1,2,3-triazol-1-yl)phenyl]methyl}-1-[(2-methyl-3,4-dihydro-1H-isoquinolin-7-yl)methyl]-1,2,3-triazole-4-carboxamide]	> 40	1000 (≈ 2040 µM)	> 40	< 0.01
COCc1nc(C(=O)NCc2c(-n3cc(C)nn3)ccc(OC)c2F)cn1Cc1ccc2c(c1)CN(C)CC2 [Example 148, N-{[2-fluoro-3-methoxy-6-(4-methyl-1,2,3-triazol-1-yl)phenyl]methyl}-2-(methoxymethyl)-1-[(2-methyl-3,4-dihydro-1H-isoquinolin-7-yl)methyl]imidazole-4-carboxamide]	> 40	> 1000	> 40	0.01 to 0.03
COCc1nn(Cc2ccc3nc(C)ccc3c2)cc1C(=O)NCc1c(-n2cnnn2)ccc(OC)c1F [RC2, N-{[2-fluoro-3-methoxy-6-(1,2,3,4-tetrazol-1-yl)phenyl]methyl}-3-(methoxymethyl)-1-[(2-methylquinolin-6-yl)methyl]pyrazole-4-carboxamide, reference compound]	0.218	20 (≈ 38.7 µM)	> 40	< 0.01

The next lines start with the values.

IC50 (Human FXIa) [µM]	solubility at 24 h [1] [µg/mL]	IC50 (Human KLK1) [µM]	IC50 (Human plasma kallikrein) [µM]	Compound
> 40	1000 (≈ 1660 µM)	> 40	< 0.01	CCN1CCc2ccc(Cn3cc(C(=O)NCc4c(-n5cnc(C(F)(F)F)n5)ccc(OC)c4F)c(COC)n3)cc2C1 [Example 25, 1-[(2-ethyl-3,4-dihydro-1H-isoquinolin-7-yl)methyl]-N-({2-fluoro-3-methoxy-6-[3-(trifluoromethyl)-1,2,4-triazol-1-yl]phenyl}methyl)-3-(methoxymethyl)pyrazole-4-carboxamide]
> 40	> 1000	> 40	< 0.01	COCc1nn(Cc2ccc3c(c2)CCN(C(C)C)C3)cc1C(=O)NCc1c(-n2cnc(C(F)F)n2)ccc(OC)c1F [Example 44, N-({6-[3-(difluoromethyl)-1,2,4-triazol-1-yl]-2-fluoro-3-methoxyphenyl}methyl)-1-[(2-isopropyl-3,4-dihydro-1H-isoquinolin-6-yl)methyl]-3-(methoxymethyl)pyrazole-4-carboxamide]
> 40	760 (≈ 1230 µM)	> 40	< 0.01	COCc1nn(Cc2ccc3c(c2)CN(C(C)C)CC3)cc1C(=O)NCc1c(-n2cnc(C(F)(F)F)n2)ccc(OC)c1F [Example 22, N-({2-fluoro-3-methoxy-6-[3-(trifluoromethyl)-1,2,4-triazol-1-yl]phenyl}methyl)-1-[(2-isopropyl-3,4-dihydro-1H-isoquinolin-7-yl)methyl]-3-(methoxymethyl)pyrazole-4-carboxamide]
31.8	800 (≈ 1470 µM)	> 40	< 0.01	COCc1nn(Cc2ccc3c(c2)CCN(C)C3)cc1C(=O)NCc1c(-n2ccc(C#N)n2)ccc(OC)c1F [Example 43, N-{[6-(3-cyanopyrazol-1-yl)-2-fluoro-3-methoxyphenyl]methyl}-3-(methoxymethyl)-1-[(2-methyl-3,4-dihydro-1H-isoquinolin-6-yl)methyl]pyrazole-4-carboxamide]
18.9	730 (≈ 1340 µM)	> 40	< 0.01	COCc1nn(Cc2ccc3c(c2)CN(C)CC3)cc1C(=O)NCc1c(-n2ccc(C#N)n2)ccc(OC)c1F [Example 11, N-{[6-(3-cyanopyrazol-1-yl)-2-fluoro-3-methoxyphenyl]methyl}-3-(methoxymethyl)-1-[(2-methyl-3,4-dihydro-1H-isoquinolin-7-yl)methyl]pyrazole-4-carboxamide]
> 40	730 (≈ 1270 µM)	> 40	< 0.01	COCc1nn(Cc2ccc3c(c2)CCN(C(C)C)CC3)cc1C(=O)NCc1c(-n2cc(C)nn2)ccc(OC)c1F [Example 122, N-{[2-fluoro-3-methoxy-6-(4-methyl-1,2,3-triazol-1-yl)phenyl]methyl}-1-[(3-isopropyl-1,2,4,5-tetrahydro-3-benzazepin-7-yl)methyl]-3-(methoxymethyl)pyrazole-4-carboxamide]
> 40	> 1000	> 40	< 0.01	CCN1CCc2ccc(Cn3cc(C(=O)NCc4c(-n5cnc(C(F)F)n5)ccc(OC)c4F)c(COC)n3)cc2C1 [Example 26, N-({6-[3-(difluoromethyl)-1,2,4-triazol-1-yl]-2-fluoro-3-methoxyphenyl}methyl)-1-[(2-ethyl-3,4-dihydro-1H-isoquinolin-7-yl)methyl]-3-(methoxymethyl)pyrazole-4-carboxamide]
> 40	720 (≈ 1230 µM)	> 40	< 0.01	CCN1CCc2cc(Cn3cc(C(=O)NCc4c(-n5cnc(C(F)F)n5)ccc(OC)c4F)c(COC)n3)ccc2C1 [Example 50, N-({6-[3-(difluoromethyl)-1,2,4-triazol-1-yl]-2-fluoro-3-methoxyphenyl}methyl)-1-[(2-ethyl-3,4-dihydro-1H-isoquinolin-6-yl)methyl]-3-(methoxymethyl)pyrazole-4-carboxamide]
